Laboratory results from the METLIN SMRT retention time set (Domingo-Almenara et al. 2019).

Assay: gradient 5% acetonitrile 3 min, to 50% in 2 min, to 85% in 15 min, held 3 min, 100 µL/min
Details: column: Zorbax Extend-C18 2.1 x 50 mm; eluents: water / acetonitrile, 0.1% formic acid
Summary of the method: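 Standards, all pure, were combined into mixtures of ~100 molecules and run at 100 μL/min on a Zorbax Extend-C18 column (2.1 × 50 mm, 1.8 μm) with water and acetonitrile, each containing 0.1% formic acid. A coupled quadrupole time-of-flight mass spectrometer operated in positive and negative ionization mode. Retention time values come from computationally picked adduct peaks, each inspected manually.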

RP-LC retention time [s] | Structure (SMILES)
836 | Cc1cc(C)cc(C(=O)N2CCCC(C(=O)NCCc3ccco3)C2)c1 (stereo not drawn)
997 | CCCn1c(=O)c2sc(N3CCCC3)nc2n(CC(=O)NCCC2=CCCCC2)c1=O
626 | Cc1ccc(S(=O)(=O)NCc2ccccn2)c(C)c1C
566 | CCCN1CCN(S(=O)(=O)c2cc(-c3[nH]ncc3C(=O)N(C)C)oc2C)CC1
864 | Cc1ccc(NC(=O)Cn2nc3c(Oc4ccc(Cl)cc4)nccn3c2=O)cc1
1090 | Cc1ccc(-c2nnc(Cc3nc(-c4ccccc4)no3)o2)cc1C
1150 | CCCC(=O)N1CCc2c([nH]c3ccccc23)C1c1ccc(C)cc1 (stereo not drawn)
626 | Cn1cc(-c2cc3n(n2)CCC(=O)N3CC(=O)NCc2ccccn2)c2ccccc21
628 | COc1ccc(S(=O)(=O)N2CCc3nc(CNC(=O)C4CCC4)n(C)c3C2)cc1
589 | COCc1cn(C2CN(C(=O)c3sc(C)nc3C)C2)nn1
731 | CCOC(=O)c1nc(NCCCN2CCN(c3cc(Cl)ccc3C)CC2)c2ccccc2n1
570 | COc1cc(OC)cc(C(=O)N2CCN(c3cc(-c4cccnc4)[nH]n3)CC2)c1
1070 | O=c1c2sccc2n(Cc2nc(-c3ccc(F)cc3)no2)c(=O)n1-c1ccc(Cl)cc1
1220 | CCOC(=O)c1ccccc1NC(=O)N1CCOc2ccc(C)cc21
766 | CN(CCc1noc(-c2ccc(C(=O)N3CCOCC3)cc2)n1)C(=O)COc1ccc(Cl)cc1
725 | CC(C)(C)C(=O)OCOP(=O)(COCCn1cnc2c(N)ncnc21)OCOC(=O)C(C)(C)C
658 | CCc1cc(=O)n(CC(=O)Nc2ccccc2C)c(N2CCOCC2)n1
1130 | Cc1[nH]nc(-c2c(C)sc(C)c2S(=O)(=O)NCCCc2ccccc2)c1C
582 | COc1ccc(-c2ccc(=O)[nH]n2)cc1OC
705 | COc1ccccc1N1CCN(c2ncc3c(n2)CCN(Cc2cccc(C)c2)C3)CC1
795 | CCOC(=O)c1[nH]c(C)c(C(=O)C(C)N(CC)C(=O)c2ccc(OC)cc2)c1C (stereo not drawn)
953 | COc1ccc(-n2c(=O)c3sccc3n(Cc3nc(-c4ccccc4)no3)c2=O)cc1

RP-LC retention time [s] | Structure (SMILES)
880 | CCOc1ccccc1NC(=O)C1CCCN1S(=O)(=O)c1cc2c(cc1Cl)NC(=O)CO2 (stereo not drawn)
596 | Oc1ccc(-c2nc3ccccn3c2Nc2ccc3c(c2)OCCO3)cc1
816 | CCc1ccc(CN2C(=O)c3c(C(=O)OC)ncn3CC2(C)C(=O)NC2CCCC2)cc1 (stereo not drawn)
579 | Cn1nc(C(=O)N2CCCC2)c2c1CCN(C(=O)CCC(=O)N1CCN(c3ccccn3)CC1)C2
597 | CCNC(=O)NCC1CCN(C(=O)NC(C)(C)C)CC1
688 | Cc1cccc(S(=O)(=O)N2CC3CN(C(=O)c4cnccn4)CC(C2)O3)c1
904 | Cc1ccc2ncn(C3CCN(S(=O)(=O)c4ccc(F)cc4F)CC3)c(=O)c2c1
902 | CC(=O)c1cccc(NC2=NS(=O)(=O)C(c3cccc(Cl)c3)=C2C)c1
924 | Cc1ccc(F)cc1NS(=O)(=O)c1ccc2c(c1)C(=O)N(C)c1ncccc1O2
828 | CCC(C)CC(=O)N1CCCN(C2=NS(=O)(=O)C(c3ccccc3)=C2C)CC1 (stereo not drawn)
1140 | Cc1cccc(Nc2c(-c3ccc(Br)cc3)nc3cnccn23)c1C
1030 | COC(=O)c1ccccc1NS(=O)(=O)c1ccc(Br)cc1
734 | CNC(=O)c1sc2nc(-c3cccc(F)c3)c(NCCOC)n2c1C
725 | CNC(=O)Cc1csc(-c2ccccc2F)n1
600 | O=C(NCc1ccccn1)C1CC(=O)N(c2n[nH]c3cc(Br)ccc23)C1 (stereo not drawn)
1310 | Fc1ccc(-c2csc(Cc3nc(-c4cccc(Cl)c4)no3)n2)cc1
786 | CC1=C(c2cccc(Cl)c2)S(=O)(=O)N=C1N1CCCN(C(=O)C(C)C)CC1
835 | COCc1noc([C@@H]2CC(F)(F)CN2C(=O)c2cc(C)oc2C)n1
763 | COc1ccc(NC(=O)N2C[C@@H](F)C[C@H]2C(=O)N2CCc3ccccc3C2)cc1
737 | COc1cccc(S(=O)(=O)N2CCC3(CC2)N(c2ccccc2)C(=O)CS3=O)c1 (stereo not drawn)
871 | CN1C(=O)c2cc(S(=O)(=O)NCc3ccccc3F)ccc2Oc2cccnc21
786 | Cn1nc(C(=O)N2CCCC(C(=O)Nc3ccccc3)C2)c2c1CCN(C(=O)C1CCCC1)C2 (stereo not drawn)

RP-LC retention time [s] | Structure (SMILES)
691 | Cc1nn(CC(=O)NCCCN2CC(C)CC(C)C2)c(=O)c2c1sc1ccccc12 (stereo not drawn)
1160 | CCn1c(C(=O)NCCc2ccccc2)cc2sc(Cl)cc21
859 | Cc1noc(C)c1C1CCCN1C(=O)c1cc(-c2ccccc2F)no1 (stereo not drawn)
796 | COc1cc(Cc2nc(-c3ccc4nnc(C)n4c3)no2)cc(OC)c1
612 | Cn1ncc2c3ccccc3n(CCCC(=O)NCc3cccnc3)c2c1=O
932 | CSc1nnc(C)c(=O)n1COC(=O)c1cc(C(F)(F)F)cc(C(F)(F)F)c1
1300 | COc1nc2ccccc2nc1N1CCCC(C(=O)Nc2cccc(Br)c2)C1 (stereo not drawn)
925 | CCCS(=O)(=O)N1CC(=O)N(c2ccc(F)cc2C)C(C)(C(=O)NC2CCCCC2)C1 (stereo not drawn)
737 | COc1ccc(OCc2noc(CNC(=O)NCc3cccs3)n2)cc1
872 | COc1ccc(NC(=O)Cn2nc3cc(-c4ccc(OC)cc4)nc(C)n3c2=O)cc1
861 | CCn1c(=O)sc2cc(S(=O)(=O)N3CCC(C(=O)NCc4ccc(C)o4)CC3)ccc21
1240 | COc1ccc(N2CCN(c3ccc(-c4nc(-c5ccccc5)no4)cn3)CC2)cc1
629 | Cc1ccc(-n2nc(C)c(S(=O)(=O)N3CCC(C(=O)N4CCN(C)CC4)CC3)c2C)cc1
590 | Cc1cc(N2CCOCC2)n2nc(CN3CCc4ccccc4C3)nc2n1
820 | CC(=O)Nc1nsc(N2CCC(C(=O)N3CCN(c4cc(C)ccc4C)CC3)CC2)n1
673 | CCc1nc(-c2cc(S(=O)(=O)N3CCC(C(=O)N4CCN(CC)CC4)CC3)c(C)s2)no1
814 | Cc1ccn2c(Nc3ccccc3C)c(-c3cc(Br)ccc3F)nc2c1
625 | CC(=O)N1C(=O)C2(NCC(C)N2)c2ccccc21 (stereo not drawn)
643 | O=C(NCc1ccnc(N2CCSCC2)c1)Nc1ccccc1Cl
947 | COC(=O)c1ccc2nc(NC(=O)c3cc(C)oc3C)sc2c1
710 | CCC(CO)NC(=O)C(=O)Nc1ccccc1SC (stereo not drawn)
680 | CC1CN(CCc2ccccc2)c2nc3c(c(=O)n(CCN4CCOCC4)c(=O)n3C)n2C1 (stereo not drawn)

RP-LC retention time [s] | Structure (SMILES)
747 | COc1ccc(C(O)CN2CCN(c3ncccn3)CC2)cc1 (stereo not drawn)
861 | CCc1cccc(NC(=O)c2c(C)oc3nc(C)nc(N4CCCC4)c23)c1
712 | Cc1ccc(N2CC(C(=O)NC(C)C)CC2=O)cc1 (stereo not drawn)
932 | Cc1nc(-c2cn(C)c3ncccc23)sc1C(=O)N1CCN(c2ccccc2)CC1
739 | Cc1ccc(NC(=O)Cn2cnc3nc(N4CCCC(C(=O)NC(C)C)C4)sc3c2=O)cc1F (stereo not drawn)
736 | O=C(NCc1cccs1)C1CCN(C(=O)c2ncn3c2COC(c2ccc(F)cc2)C3)CC1 (stereo not drawn)
796 | CC(C)c1cc(C2NNC(=O)N2c2ccc3c(ccn3C)c2)c(O)cc1O (stereo not drawn)
1240 | CCCCn1c(=O)c2ccccc2n(Cc2nc(-c3cccc(C(F)(F)F)c3)no2)c1=O
1160 | COc1ccc(-c2csc(Cc3nc(-c4cccc(Cl)c4)no3)n2)cc1OC
1180 | CCOc1ccc(-c2cc3c(=O)n(Cc4nc(-c5ccccc5OCC)no4)ncn3n2)cc1
793 | CC1Cc2ccccc2N1C(=O)c1ccc(=O)n(CCC(=O)NC2CCCCC2)n1 (stereo not drawn)
652 | O=C(NCCn1ncccc1=O)C1(c2cccs2)CCCC1
901 | Cc1ccc(C(=O)N2CCc3nc(-c4ccc(F)cc4)ncc3C2)cc1C
613 | O=C(NCCCOC(=O)c1ccccc1)c1ccncc1
754 | CCOc1ccc(N(Cc2nc3nc(C)cc(C)n3n2)C(=O)c2ccco2)cc1
798 | CN(Cc1ccccc1)C(=O)CCSC1CCc2ccccc2NC1=O (stereo not drawn)
1340 | CCCCCn1c(=O)c2ccccc2n(Cc2nc(-c3ccc(Cl)cc3)no2)c1=O
764 | CC(C)C(=O)Nc1ccc2c(c1)Sc1ncccc1C(=O)N2C(C)C
744 | CC(CCc1ccccc1)NC(=O)Cc1nnc(-c2ccccn2)o1 (stereo not drawn)
558 | CCNC(=O)C1CCN(c2nccc3sccc23)CC1
741 | CCN1CCn2c(nc3cc(C(=O)NCc4ccccc4C(F)(F)F)ccc32)C1=O

Structure (SMILES) | RP-LC retention time [s]
CCN1CCN(C(=O)Cc2ccc(Nc3ncc(F)c(Nc4ccc(C(=O)Nc5ccccc5Cl)cc4)n3)cc2)CC1 | 684
